Consider ten molecules from PubChem BioAssay (NCI).

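Cultured in 96-well plates, cells were exposed to test compound for 48 hours across five concentrations. GI50 marks 50% less growth. TGI is the concentration that stops growth completely.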 Where a SMILES comes first, the peptide text is derived from it. Bridges are numbered along the chain shown (N, C = ends). Roman numbers before positions name the chains, in order. [ ]: non-standard residue; d: D form. The star is where a group is joined. Quinoxaline2carbonyl = O=C(c1cnc2ccccc2n1)*; NMeV = CN[CH](C(=O)O)C(C)C; NMeC = CN[CH](CS)C(=O)O

Common to all, as to assay: NCI anticancer screen, dose series, 48 h
Assay [1] concerns M14 melanoma.
Assay [2] relates to SNB-19 CNS.
The test system of assay [3] is UACC-62 melanoma.
For assay [4], the system named is OVCAR-8 ovarian.
In assay [5] the test system is A549 NSCLC.
In assay [6] the test system is OVCAR-4 ovarian.
The test system of assay [7] is NCI-H23 lung.
For assay [8], the system named is HOP-92 NSCLC.
Assay [9] deals with SK-MEL-5 melanoma.
Assay [10] has as its system EKVX NSCLC.

Regarding `CC1NC(=O)C(NC(=O)c2cnc3ccccc3n2)COC(=O)C(C(C)C)N(C)C(=O)C2CSSCC(C(=O)N(C)C(C(C)C)C(=O)OCC(NC(=O)c3cnc4ccccc4n3)C(=O)NC(C)C(=O)N2C)N(C)C1=O` (stereo not drawn) (I: Quinoxaline2carbonyl-SA[NMeC][NMeV] / II: Quinoxaline2carbonyl-SA[NMeC][NMeV]; ester I:1-II:C, I:C-II:1; disulfide I:3-II:3; configuration not given here), the TGI was under 0.01 µM in [1]; over 100 µM in [2]; under 0.01 µM in assay [3]; under 0.215 µM in assay [4]; 2.78 µM in assay [5]; 0.254 µM in [6]. Besides, the TGI in assay [7] is under 0.0133 µM; in assay [8] it was over 35.7 µM.
Consider `CCCCn1c(=O)c2c(nc3n2CCCN3CCc2ccc(OCC(=O)NCCN(CC)CC)cc2)n(CCCC)c1=O`, for which the GI50 in assay [1] is 0.961 µM; in assay [2], 3.24 µM; in assay [9], 0.864 µM; in [4], 7.1 µM; in assay [5], 7.12 µM; in assay [6], 2.61 µM. The GI50 in assay [10] was 5.2 µM; in assay [7] it was 6.51 µM; in assay [8], 0.846 µM. In addition, the TGI in assay [1] was determined as 1.93 µM; in assay [2] it was 11.4 µM; in assay [9], 1.65 µM; in [4], 26.4 µM; in assay [5], 15.4 µM; in assay [6] it was 9.76 µM. Besides, the TGI in assay [10] is 11.7 µM; in assay [7], 15.6 µM; in assay [8] it was 3.45 µM.
In the case of `Cc1cc2c(c(C(=O)O)c1C)-c1cccc(F)c1C2=O`, the TGI in [1], in assay [2], in assay [9], in assay [3], in assay [4] and in [5] was over 100 µM throughout. Also, the TGI in assay [6], in assay [10] and in assay [7] was over 100 µM in each case.
Take `CC1(C)C2CCC13CS(=O)(=O)N1O[C@]13C(=O)O2` (stereo partly drawn): the TGI in assay [2], in [4], in assay [5], in assay [6], in [10] and in [7] was over 100 µM each time. This molecule came in with a TGI in assay [8] of over 100 µM.
As for `Cc1cc(N(CCC#N)CCC#N)ccc1/C=C1N=C(/C=C\c2ccccc2)N(c2ccc(Cl)cc2)C\1=O`, the TGI in [1] is over 48.2 µM; in [2] it was over 100 µM; in [9], 17.5 µM; in assay [4], over 100 µM; in assay [5] it was over 100 µM; in assay [6], over 100 µM. The TGI in assay [10], in assay [7] and in [8] was over 100 µM each time.
With `CC1=CC(=O)C(O)C2(C)C1CC(O)C13COC4(C)C(OC(=O)C41)C(O)C23` (stereo not drawn), the GI50 in assay [1] was 4.14 µM; in assay [2], 7.94 µM; in assay [9], 5.06 µM; in assay [3], 8.02 µM; in [4] it was 5.57 µM; in [5] it was 5.49 µM. In addition, the figures for the GI50 in [6], in assay [10] and in assay [7] were 15 µM, 11.9 µM and 4.8 µM, respectively. For the same molecule, the TGI is 15.4 µM in assay [1]; over 100 µM in assay [2]; 21.2 µM in assay [9]; 32.3 µM in assay [3]; 25.2 µM in [4]; 34 µM in [5]. Moreover, the TGI is over 100 µM in assay [6], 41.6 µM in [10] and 18.6 µM in [7].
On to `CCN(Cc1ccc(Cl)s1)c1ccc(CO)c(Cl)c1`, for which the GI50 is 10.3 µM in [1]; 20.7 µM in assay [2]; 1.9 µM in [9]; 0.0861 µM in assay [3]; 5.75 µM in assay [4]; 1.08 µM in assay [5]. Besides, the GI50 in [6] was 0.134 µM; in assay [7] it was 3.2 µM; in assay [8] it was 0.563 µM. In addition, the TGI in assay [1] is 34.3 µM; in assay [2] it was over 93.5 µM; in assay [9], 18.1 µM; in assay [3], 0.438 µM; in [4], 27.6 µM; in [5] it was 18.7 µM. The TGI was 0.776 µM in assay [6], 42.1 µM in assay [7] and 15.1 µM in assay [8].
Turning to `CN(C)c1ccc(/C=C2\C=Cc3ccccc32)cc1`, the TGI in assay [1], in assay [2], in assay [9], in assay [3], in [4] and in assay [5] was over 100 µM each time. Moreover, the TGI in assay [6], in [7] and in assay [8] was over 100 µM each time.
With `O=C([CH-]C(=O)c1ccccc1)c1ccccc1.O=C([CH-]C(=O)c1ccccc1)c1ccccc1.[OH-].[OH-].[Ti+4]`, the GI50 is 36.2 µM in assay [1]; 39.9 µM in assay [2]; 31.2 µM in assay [9]; 66.5 µM in assay [3]; 55 µM in [4]; over 100 µM in assay [5]. The GI50 in assay [10] was 94.9 µM. The TGI in assay [1], in assay [2], in assay [9], in assay [3], in assay [4] and in [5] was over 100 µM in each case. Further, the TGI in assay [10] was over 100 µM.
Consider `CC1(C)N=C(N)N=C(N)N1c1ccc(CCCCc2ccc(S(=O)(=O)F)cc2)c(Cl)c1`, for which the GI50 in assay [1] is 0.334 µM; in assay [2], 0.773 µM; in assay [9], 0.345 µM; in assay [3] it was 0.0559 µM; in assay [4], 0.452 µM; in [5], 0.334 µM. Moreover, the GI50 in assay [6] is 5.18 µM; in assay [7], 0.363 µM; in [8], 5.56 µM. Also, the TGI in assay [1] is 17.9 µM; in [2] it was 19.1 µM; in assay [9], 12.5 µM; in assay [3], 19.6 µM; in assay [4], 18.4 µM; in assay [5], over 44.8 µM. Besides, the results for the TGI in assay [6], in assay [7] and in assay [8] were 22 µM, 19.5 µM and 26.1 µM, respectively.
